# Several values for one entry are separate records, joined by “and”; a condition that tells them apart may be missing. Identical values can stand only once.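 Briefly, cells in 96-well plates were exposed to five compound concentrations for 48 h, and endpoints were estimated by linear interpolation. GI50 is the concentration that inhibits growth by half. At the TGI there is no net growth.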
# Assays:
# Test in all cases: NCI-60 cell line screen, 48 h
# A549 NSCLC = system: A549 NSCLC
# COLO 205 colon = system: COLO 205 colon
# HOP-62 NSCLC = system: HOP-62 NSCLC
# HOP-92 NSCLC = system: HOP-92 NSCLC
# NCI-H522 lung = system: NCI-H522 lung
# OVCAR-3 ovarian = system: OVCAR-3 ovarian
# OVCAR-5 ovarian = system: OVCAR-5 ovarian
# RPMI-8226 leukemia = system: RPMI-8226 leukemia
# SNB-75 CNS = system: SNB-75 CNS
# T-47D breast = system: T-47D breast
Compound,TGI (A549 NSCLC) [µM],TGI (COLO 205 colon) [µM],TGI (HOP-62 NSCLC) [µM],TGI (HOP-92 NSCLC),TGI (NCI-H522 lung) [µM],TGI (OVCAR-3 ovarian) [µM],TGI (OVCAR-5 ovarian) [µM],TGI (RPMI-8226 leukemia) [µM],TGI (SNB-75 CNS) [µM],TGI (T-47D breast) [µM],GI50 (HOP-62 NSCLC),GI50 (HOP-92 NSCLC),GI50 (NCI-H522 lung) [µM],GI50 (OVCAR-3 ovarian),GI50 (RPMI-8226 leukemia),GI50 (SNB-75 CNS)
N#Cc1c(-c2ccccc2)c2c([nH]c1=O)-c1cc([N+](=O)[O-])ccc1CCC2,> 100,55.3,70.2,58.9 µM,97.8,45,> 100,> 100,49.9,52.2,,,,,,
O=C(CC(C(=O)c1ccco1)c1ccco1)c1ccco1 (centres undefined),> 100,> 100,> 100,> 100 µM,> 100,> 100,> 100,> 100,> 100,> 100,,,,,,
S=C1NC2=C(CSC/C2=C\c2ccccc2)C(c2ccccc2)N1 (centres undefined),> 100,> 100,> 100,97.4 µM,> 100,> 100,> 100,> 100,,> 100,,,,,,
C=C1C(=O)C23C(O)CC4C5(C)CCCC4(C(O)OC5)C2C(OC(C)=O)CC1C3O (centres undefined),51.5,18.9,32.2,14.6 µM,3.64,28.2,31.9,17.7,16.6,,,,,,,
C=CCN1C(=O)/C(=C/c2ccc(C)cc2)N=C1SC1OC(COC(C)=O)C(OC(C)=O)C(OC(C)=O)C1OC(C)=O (centres undefined),> 100,> 100,> 100,> 100 µM and 53.4 µM,> 100,> 100,> 100,> 100,> 100,> 100,5.17 µM and 47.4 µM,> 100 µM and 11.6 µM,6.85,> 100 µM and 29.4 µM,> 100 µM and 20.2 µM,3.7 µM and 20.2 µM
CC(C)C(N)C(=O)NC(CCC(=O)NCCCCC(N)C(=O)NCCCNc1ccc([N+](=O)[O-])c2[nH]c3ccccc3c(=O)c12)C(N)=O (centres undefined),> 100,> 100,> 100,> 100 µM,,> 100,> 100,> 100,> 100,> 100,,,,,,
O=C(O)CCCCCCCCC(=O)O,> 500,> 500,> 500,> 500 µM,> 500,> 500,> 500,> 500,> 79.3,,,,,,,
Cc1c(-c2ccccc2)[nH]n(C2=NCCN2)c1=O,> 100,> 100,> 100,> 100 µM,> 100,> 100,> 100,> 100,> 100,> 100,,,,,,
CC1=NNC(=O)C1C1CC(c2c[nH]c3ccccc23)=NN=C1Cl (centres undefined),> 100,80.6,> 100,> 100 µM,> 100,> 100,> 100,81.6,> 100,> 100,,,,,,
O=C(NN1C(=O)CSC1c1cccc(F)c1)c1ccncc1 (centres undefined),> 100,> 100,,,> 100,,> 100,> 100,> 100,,,,,,,
COc1cc(C2c3cc4c(cc3[C@@H](Nc3ccc5c(c3)OCO5)C3COC(=O)[C@H]23)OCO4)cc(OC)c1O (some centres undefined),2.56,7.41,0.715,8.37 µM,4.49,22.2,> 59.4,8.59,,,,,,,,
CC1(C)N=C2C(=O)c3c([nH]c4ccccc34)[C@]3(C)CCC1CC23 (some centres undefined),> 6.25,> 6.25,> 6.25,> 6.25 µM,> 6.25,> 6.25,> 6.25,> 6.25,> 6.25,,,,,,,
COC(=O)[C@H](Cc1ccccc1)NC(=O)N(CCC#N)CCN(C(=O)N[C@@H](Cc1ccccc1)C(=O)OC)c1ccccc1,> 100,56.2,> 100,39.4 µM,,43.4,> 100,43.9,45.3,41.6,,,,,,
CN1N=C(c2ccncc2)OC1c1ccccc1F (centres undefined),> 100,> 100,> 100,> 100 µM,> 100,> 100,> 100,> 100,,> 100,,,,,,
Cc1cc(C)c(/C=C(\C(=C/c2c(C)cc(C)cc2C)[N+](=O)[O-])[N+](=O)[O-])c(C)c1,> 100,> 100,> 100,> 100 µM,,> 100,> 100,70.9,> 100,> 100,,,,,,
COc1ccc(/C=N/n2c(C)nc3c(sc(=S)n3-c3ccccc3)c2=O)cc1,> 100,> 100,> 100,> 100 µM,46.4,> 100,> 100,> 100,41.4,,,,,,,
C/C(=C\CO)CC/C=C(\C)CNc1ccc([N+](=O)[O-])cc1,> 100,> 100,> 100,,66.8,48.2,> 100,,> 100,80,,,,,,
COc1cccc2c1OCC1Cc3ccccc3OC21 (centres undefined),> 100,96.1,> 100,,> 100,88.8,> 100,> 100,,> 100,,,,,,
CCOC(=O)C1CCC(=O)N1C(=O)c1ccccc1Cl (centres undefined),> 100,,> 100,> 100 µM,> 100,> 100,> 100,> 100,> 100,> 100,,,,,,
O=C(/C=C/c1ccc2c(c1)OCO2)Cc1nc2ccccc2[nH]c1=O,62,> 100,35.2,73.3 µM,> 100,81.5,> 100,> 100,,34.2,,,,,,
O=C1CS(=O)(=O)C(c2cccc(Oc3ccccc3)c2)N1c1cc(Cl)ccc1Cl (centres undefined),> 100,> 100,,38.8 µM,56,35.1,> 100,,33.1,53.2,,,,,,
CC#CC(O)(C(=O)OC1CC(C)N(C)C(C)(C)C1)C1CCCC1 (centres undefined),> 100,> 100,> 100,,> 100,> 100,> 100,> 100,> 100,> 100,,,,,,

Compound,TGI (A549 NSCLC) [µM],TGI (COLO 205 colon) [µM],TGI (HOP-62 NSCLC) [µM],TGI (HOP-92 NSCLC),TGI (NCI-H522 lung) [µM],TGI (OVCAR-3 ovarian) [µM],TGI (OVCAR-5 ovarian) [µM],TGI (RPMI-8226 leukemia) [µM],TGI (SNB-75 CNS) [µM],TGI (T-47D breast) [µM],GI50 (HOP-62 NSCLC),GI50 (HOP-92 NSCLC),GI50 (NCI-H522 lung) [µM],GI50 (OVCAR-3 ovarian),GI50 (RPMI-8226 leukemia),GI50 (SNB-75 CNS)
CC1(C)OC2COC3([C@@H]4OC(C)(C)O[C@@H]4CO)OC(C)(C)OC3C2O1 (some centres undefined),> 100,> 100,> 100,> 100 µM,,> 100,> 100,> 100,> 100,> 100,,,,,,
CCN1C(=O)C(=C/C=C/c2ccc(N(CC)CC)cc2)C(=O)N(CC)C1=S,> 100,> 100,50.7,> 100 µM,,54.9,> 100,> 100,,> 100,,,,,,
CCN(CCCl)c1cc(CN(C)C)cc(NC(=O)c2ccc(C(=O)Nc3cccc(CN(C)C)c3)cc2)c1,14.5,2.41,10.8,3.66 µM,0.042,,93.2,8.73,3.18,10.1,,,,,,
O=C1OC(c2ccccc2)N(C(=O)c2ccccc2)C1Cc1ccc(OCc2ccccc2)cc1 (centres undefined),> 100,> 100,> 100,53.4 µM,,,> 100,> 100,> 100,> 100,,,,,,
c1ccc(C2CC(=NC3CCCCC3)Nc3ccccc3N2)cc1 (centres undefined),> 100,> 100,> 100,,78.1,> 100,> 100,> 100,78.4,,,,,,,
C[C@H]1OC(=O)[C@@H]2N=NN(Cc3ccccc3)[C@H]12,> 100,> 100,> 100,> 100 µM,> 100,> 100,> 100,> 100,,> 100,,,,,,
O=C1C=CC(=O)C(CNc2ccc(C(=O)OCc3ccccc3)cc2)=C1,32.1,3.79,33,3.8 µM,2.87,7.23,29.5,> 21,18.4,,,,,,,
COc1ccc(N2C(=O)C3c4[nH]c5ccccc5c4C4CCCCCCCCCC4C3C2=O)cc1 (centres undefined),> 10,> 10,> 10,,> 10,> 10,> 10,> 10,> 10,> 10,,,,,,
COP(=O)(OC)C(Nc1ccc(Cc2ccc(NC(c3ccco3)P(=O)(OC)OC)cc2)cc1)c1ccco1 (centres undefined),> 100,> 100,20.4,35.1 µM,> 100,> 100,> 100,,10.2,> 100,,,,,,
O=C(O)/C=C\C(=O)Nc1ccc(S(=O)(=O)c2ccc(NC(=O)/C=C\C(=O)O)cc2)cc1,> 100,> 100,> 100,> 100 µM,> 100,> 100,> 100,> 100,> 100,,,,,,,
C/C(=N\Nc1nc2ccccc2s1)c1ccc2ccccc2n1,> 100,> 100,> 100,,> 100,> 100,> 100,45.3,97.2,53.5,,,,,,
O=[N+]([O-])c1cccc2c(N=Nc3ccc4ccccc4c3O)c(O)cc(S(=O)(=O)O)c12,> 100,,> 100,> 100 µM,> 100,> 100,> 100,> 100,> 100,,,,,,,
CSc1nc2c(ncn2C2OC(CO)C(O)C(O)C2O)c(=O)[nH]1 (centres undefined),> 100,> 100,> 100,> 100 µM,> 100,> 100,> 100,> 100,> 100,,,,,,,
O=[N+]([O-])/C(Cl)=C(\NCCN/C(C(Cl)=C(Cl)Cl)=C(/Cl)[N+](=O)[O-])C(Cl)=C(Cl)Cl,> 100,> 100,> 100,53.9 µM,,> 100,> 100,65.8,> 100,> 100,,,,,,
Cc1cccc(/C(Br)=C2/OC(=O)c3ccccc32)c1,> 100,> 100,> 100,> 100 µM,> 100,> 100,> 100,> 100,> 100,,,,,,,
Cc1cc(C)nc(NS(=O)(=O)c2ccc(NC(=O)c3cccc4c(NNc5ccc(S(=O)(=O)N=C(N)N)cc5)c5ccccc5nc34)cc2)n1,> 50,> 50,> 50,> 50 µM,> 50,> 50,,> 50,> 50,> 50,,,,,,
O=S1SC(=S)C2C=CC=CC21 (centres undefined),> 100,> 100,,> 100 µM,> 100,> 100,> 100,> 100,> 100,> 100,,,,,,
CCOP(=O)(OCC)OC1CC(n2cc(C)c(=O)n(C)c2=O)OC1CO[Si](C)(C)C(C)(C)C (centres undefined),> 100,> 100,> 100,,> 100,> 100,> 100,> 100,> 100,> 100,,,,,,
COC(=O)N1N=C(c2ccccc2)C1c1ccccc1 (centres undefined),> 100,> 100,,,,> 100,> 100,> 100,> 100,> 100,,,,,,
O=C1C(C(O)(C(F)(F)F)C(F)(F)F)CCC1C(O)(C(F)(F)F)C(F)(F)F (centres undefined),> 65.4,1.86,,0.245 µM,18.9,> 100,> 100,13.5,7.61,2.13,,,,,,
O=C1C2=Nc3ccccc3C(O)(C(=O)O)N2c2ccccc21 (centres undefined),24.6,36.6,> 100,> 100 µM,50.2,58.5,49.4,> 100,74.2,,,,,,,
COc1ccc([C@H]2C=[N+]([O-])O[C@H](OC3CCCC3)[C@@H]2OC(C)=O)cc1OC,> 100,30.9,> 100,32.9 µM,17.9,72.4,,> 100,> 100,53.2,,,,,,
